According to article PMC5796017, “Enantiomeric Effect of D-Amino Acid Substitution on the Mechanism of Action of α-Helical Membrane-Active Peptides” (International Journal of Molecular Sciences, 2017):
Converted amounts (≈) assume the structure as drawn.

How the values were obtained:
[1] = RP-HPLC retention time as relative hydrophobicity; assay type: physicochemical; conditions: 25 °C, used by the paper as measure of relative hydrophobicity
Experimental: The RP-HPLC retention time has been widely used to represent the relative hydrophobicity of peptides in many studies.The relative hydrophobicity of the peptides was determined by the RP-HPLC retention times at 25 °C. The change in hydrophobicity of the peptides caused by D-amino acid substitutions was mainly due to the disruption of the helical structure.

[2] = Circular dichroism (CD) secondary structure; assay type: physicochemical; conditions: for [θ]222, benign / [θ]222, 50% TFE: CD, 75 μM peptide, 25 °C; for [θ]222, benign: KP buffer (100 mM KCl, 50 mM KH2PO4/K2HPO4, pH 7.4); for [θ]222, 50% TFE / α-Helix (%), 50% TFE (relative helicity): KP buffer with 50% TFE; for α-Helix (%), 50% TFE (relative helicity) / α-Helix (%), benign: relative to molar ellipticity of V13K in 50% TFE; for α-Helix (%), benign: KP buffer
Source text: The influence of the amino acid substitutions on the peptide secondary structure were investigated using circular dichroism (CD) spectroscopy under benign conditions (KP buffer) and under conditions designed to mimic the hydrophobic environment of the membrane (KP buffer with 50% TFE). D-amino acid substitutions reduced the helicity of the peptide analogs relative to that of peptide V13K, in both KP buffer and KP buffer with 50% TFE. […] As shown in Table 2 and Figure S1, the values of the relative helicity of peptides with polar face substitutions are in the order of K14D (76.99%) > S11D/K14D (51.33%) > S11D/K14D/T15D (38.67%). Similarly, the relative helicity of the peptides with substitutions on the non-polar face follows the same trend: A12D (70.83%) > F9D/A12D (38.26%) > F9D/A12D/V16D (36.41%). Since the values of the relative helicity of the peptides with D-amino acid substitutions on the non-polar face were less than those peptide analogs with the same number of D-amino acid substitutions on the polar face, it is clear that the amino acid residues on the non-polar face may be more important for stabilizing the α-helical structure than residues on the polar face.
The secondary structures of the peptides were examined using a Jasco J-810 CD spectrometer (Jasco, Easton, MD, USA) at 25 °C as described previously. […] The mean residue molar ellipticities were calculated according to the equation [θ] = θ/10lCMn, in which, θ represents the ellipticity in millidegrees, l is the optical path length of the cuvette in centimeters, CM is the peptide concentration in mol/L, and n is the number of residues in the peptide. The mean residue molar ellipticities at 222 nm, [θ]222 (degree·cm^2·dmol^−1), were used to calculate the relative helical content of the peptides.

S. aureus ATCC25923 = assay: Antimicrobial activity, microtiter dilution MIC; assay type: cell-based, Staphylococcus aureus; conditions: G+; MH medium, 5 × 10^5 CFU/mL, 37 °C, 24 h, triplicate
Experimental: (§1) The antimicrobial activity of the peptides was determined by the standard microtiter dilution method and indicated as MIC (minimal inhibitory concentration) as described previously. Briefly, bacteria were cultured in Mueller–Hinton (MH) medium overnight at 37 °C, diluted to a final inoculum of 5 × 10^5 colony-forming units (CFU)/mL with MH and loaded into 96-well microtiter plates (90 μL/well) with serial dilution of peptides (10 μL/well), with a further incubation at 37 °C for 24 h. MIC was expressed as the lowest peptide concentration that inhibited the growth of bacteria. The antimicrobial assays were repeated in triplicate.

S. epidermidis ATCC12228 = assay: Antimicrobial activity, microtiter dilution MIC; assay type: cell-based, Staphylococcus epidermidis; conditions: G+; MH medium, 5 × 10^5 CFU/mL, 37 °C, 24 h, triplicate
Experimental: as §1

P. aeruginosa ATCC27853 = assay: Antimicrobial activity, microtiter dilution MIC; assay type: cell-based, Pseudomonas aeruginosa; conditions: G−; MH medium, 5 × 10^5 CFU/mL, 37 °C, 24 h, triplicate
Experimental: as §1

E. coli ATCC25922 = assay: Antimicrobial activity, microtiter dilution MIC; assay type: cell-based, Escherichia coli; conditions: G−; MH medium, 5 × 10^5 CFU/mL, 37 °C, 24 h, triplicate
Experimental: as §1

[3] = test system: human red blood (hRBC) cells; assay: Hemolytic activity assay; assay type: cell-based; conditions: for MHC (minimal hemolytic concentration): 2% human RBC in PBS, 37 °C, 2 h, absorbance 578 nm, triplicate; for Hemolytic activity compared with V13K: human red blood cells
Experimental: The […] of the peptides was measured by a hemolytic activity assay as described previously. Briefly, healthy human RBCs were collected using an anticoagulation tube with EDTAK2 and centrifuged at 1000 rpm for 5 min. The erythrocytes were washed three times, then diluted to a concentration of 2% in phosphate-buffered saline (PBS). The peptides were serially diluted in PBS and 70 μL of the peptide solutions and 2% RBC suspension were added simultaneously to each well of a 96-well plate (round bottom) for a further incubation at 37 °C for 2 h. Then, the plates were centrifuged for 10 min at 3000 rpm and the supernatant (90 μL) was transferred to a 96-well plate (flat bottom). The absorbance of the supernatant was measured on a microplate reader at 578 nm. Erythrocytes in PBS and distilled water were used as the negative (0%) and positive (100%) controls, respectively. The hemolytic activity was calculated as the percentage of experimental group over positive control (100%), after subtraction of negative control (0%). The hemolytic assays were repeated in triplicate.

BxPC-3 = assay: MTT cell viability assay; assay type: cell-based, human; conditions: BxPC-3, MTT, 24 h; mean ± SEM of three independent determinations
Experimental: (§2) HeLa, MIA PaCa-2, HPAC, and Bxpc-3 cells were maintained in Dulbecco’s modified Eagle medium) with 10% fetal bovine serum, penicillin (100 U/mL), and streptomycin ([…]) in a humid atmosphere at 37 °C with 5% CO2. The effect of the peptides on the survival of HeLa, MIA PaCa-2, HPAC, and Bxpc-3 cells was determined by 3-(4,5-dimethyl-2-thiazolyl)-2,5-diphenyl-2H-tetrazolium bromide (MTT) assay, as described in a previous study. Briefly, cells were seeded in 96-well plates at a density of 5000 per well. After overnight incubation, cells were incubated, in the absence, or presence of various concentrations of peptides for 24 h. Then, the formazan crystals formed by MTT were dissolved with dimethyl sulfoxide (DMSO) and the absorbance was determined at 492 nm with a microplate reader (GF-M3000; Gaomi Caihong Analytical Instruments Co., Shandong, China). The results were expressed as IC50 values, representing the concentration at which cell viability was reduced by 50%. The cytotoxicity assays were repeated in triplicate.

HPAC = assay: MTT cell viability assay; assay type: cell-based, human; conditions: 24 h, mean ± SEM of three independent determinations
Experimental: as §2

HeLa = assay: MTT cell viability assay; assay type: cell-based, human; conditions: 24 h, mean ± SEM of three independent determinations
Experimental: as §2

MIA PaCa-2 = assay: MTT cell viability assay; assay type: cell-based, human; conditions: MIA PaCa-2, MTT, 24 h; mean ± SEM of three independent determinations
Experimental: as §2

| SMILES | tR (RP-HPLC retention time), relative hydrophobicity [1] [min] | [θ]222, benign [2] [degree·cm^2·dmol^−1] | [θ]222, 50% TFE [2] | α-Helix (%), 50% TFE (relative helicity) [2] [%] | α-Helix (%), benign [2] [%] | MIC (S. aureus ATCC25923) [µM] | MIC (S. epidermidis ATCC12228) [µM] | MIC (P. aeruginosa ATCC27853) [µM] | MIC (E. coli ATCC25922) [µM] | MHC (minimal hemolytic concentration) [3] [µM] | Hemolytic activity compared with V13K [3] | IC50 (BxPC-3) [µM] | IC50 (HPAC) [µM] | IC50 (HeLa) [µM] | IC50 (MIA PaCa-2) [µM] |
| --- | --- | --- | --- | --- | --- | --- | --- | --- | --- | --- | --- | --- | --- | --- | --- |
| CC[C@H](C)[C@H](NC(=O)[C@H](C)NC(=O)[C@H](CCCCN)NC(=O)[C@H](CC(C)C)NC(=O)[C@H](C)NC(=O)[C@@H](NC(=O)[C@H](Cc1c[nH]cn1)NC(=O)[C@H](CC(C)C)NC(=O)[C@H](NC(=O)[C@@H](NC(=O)[C@H](CCCCN)NC(=O)[C@H](CCCCN)NC(=O)[C@@H](C)NC(=O)[C@H](CO)NC(=O)[C@H](CCCCN)NC(=O)[C@H](Cc1ccccc1)NC(=O)[C@@H](NC(=O)[C@H](CCCCN)NC(=O)[C@H](CC(C)C)NC(=O)[C@H](Cc1ccccc1)NC(=O)[C@H](CO)NC(=O)[C@H](CCCCN)NC(=O)[C@H](Cc1c[nH]c2ccccc12)NC(=O)[C@H](CCCCN)NC(C)=O)[C@@H](C)O)[C@@H](C)O)C(C)C)[C@@H](C)O)C(=O)N[C@@H](CO)C(=O)N[C@@H](CO)C(N)=O [A12D/V16D] | 39.79 | −3435.72 | −23,452.9 degree·cm^2·dmol^−1 | 46.42 | 6.8 | 125 (≈ 374 µg/mL) | 125 (≈ 374 µg/mL) | 32 (≈ 95.7 µg/mL) | 125 (≈ 374 µg/mL) | >500 | much less hemolytic activity than V13K | 125 ± 5.9 | 41.4 ± 1.4 | 60.1 ± 1.2 | 46.2 ± 3 |
| CC[C@H](C)[C@H](NC(=O)[C@H](C)NC(=O)[C@H](CCCCN)NC(=O)[C@H](CC(C)C)NC(=O)[C@H](C)NC(=O)[C@@H](NC(=O)[C@H](Cc1c[nH]cn1)NC(=O)[C@H](CC(C)C)NC(=O)[C@H](NC(=O)[C@@H](NC(=O)[C@H](CCCCN)NC(=O)[C@H](CCCCN)NC(=O)[C@@H](C)NC(=O)[C@H](CO)NC(=O)[C@H](CCCCN)NC(=O)[C@@H](Cc1ccccc1)NC(=O)[C@@H](NC(=O)[C@H](CCCCN)NC(=O)[C@H](CC(C)C)NC(=O)[C@H](Cc1ccccc1)NC(=O)[C@H](CO)NC(=O)[C@H](CCCCN)NC(=O)[C@H](Cc1c[nH]c2ccccc12)NC(=O)[C@H](CCCCN)NC(C)=O)[C@@H](C)O)[C@@H](C)O)C(C)C)[C@@H](C)O)C(=O)N[C@@H](CO)C(=O)N[C@@H](CO)C(N)=O [F9D/A12D/V16D] | 39.06 | −1907.83 | −18,393.1 degree·cm^2·dmol^−1 | 36.41 | 3.8 | 125 (≈ 374 µg/mL) | 125 (≈ 374 µg/mL) | 125 (≈ 374 µg/mL) | 125 (≈ 374 µg/mL) | >500 | much less hemolytic activity than V13K | 125 ± 1.8 | 95.6 ± 1.8 | 125 ± 3.4 | 57.9 ± 2.8 |
| CC[C@H](C)[C@H](NC(=O)[C@H](C)NC(=O)[C@H](CCCCN)NC(=O)[C@H](CC(C)C)NC(=O)[C@H](C)NC(=O)[C@@H](NC(=O)[C@H](Cc1c[nH]cn1)NC(=O)[C@H](CC(C)C)NC(=O)[C@@H](NC(=O)[C@@H](NC(=O)[C@H](CCCCN)NC(=O)[C@H](CCCCN)NC(=O)[C@@H](C)NC(=O)[C@H](CO)NC(=O)[C@H](CCCCN)NC(=O)[C@@H](Cc1ccccc1)NC(=O)[C@@H](NC(=O)[C@H](CCCCN)NC(=O)[C@H](CC(C)C)NC(=O)[C@H](Cc1ccccc1)NC(=O)[C@H](CO)NC(=O)[C@H](CCCCN)NC(=O)[C@H](Cc1c[nH]c2ccccc12)NC(=O)[C@H](CCCCN)NC(C)=O)[C@@H](C)O)[C@@H](C)O)C(C)C)[C@@H](C)O)C(=O)N[C@@H](CO)C(=O)N[C@@H](CO)C(N)=O [F9D/A12D] | 40.04 | −2319.89 | −19,328.6 degree·cm^2·dmol^−1 | 38.26 | 4.6 | 125 (≈ 374 µg/mL) | 64 (≈ 191 µg/mL) | 32 (≈ 95.7 µg/mL) | 125 (≈ 374 µg/mL) | 250 |  | 125 ± 3.7 | 42.4 ± 3 | 59.8 ± 0.5 | 38.8 ± 2.9 |
